Laboratory results as given in ChEMBL document CHEMBL5154901, “Development of Predictive Classification Models for Whole Cell Antimycobacterial Activity of Benzothiazinones” (J Med Chem, 2022).
Values after ≈ are worked out from the molar mass of the structure shown.

What was measured:
[1] = Cytotoxicity against human HeLa cells assessed as reduction in cell viability incubated for 72 hrs by methylene blue staining based colorimetric assay; format: toxicity
Mycolicibacterium vaccae = experiment: Antimycobacterial activity against Mycobacterium vaccae (JMRC:STI:10670) assessed as reduction in bacterial growth incubated for 42 hrs by serial dilution method; format: functional
[2] = Mycolicibacterium vaccae, JMRC:STI:10670, read-out: MIC

SMILES | CC50 at 72 h [1] [µM] | MIC (Mycolicibacterium vaccae; [2]) [µM] | MIC (Mycolicibacterium vaccae)
O=c1nc(N2CCC(c3ccc(CO)cc3)CC2)sc2c([N+](=O)[O-])cc(C(F)(F)F)cc12 | 19.6 | 0.0537 (≈ 0.025 µg/mL) | 
CN1CCN(C(=O)CC(C)(C)CC(=O)N2CCN(c3nc(=O)c4cc(C(F)(F)F)cc([N+](=O)[O-])c4s3)CC2)CC1 |  | 5.34 (≈ 3.12 µg/mL) | 
O=C(c1ccc2cn[nH]c2c1)N1CCN(c2nc(=O)c3cc(C(F)(F)F)cc([N+](=O)[O-])c3s2)CC1 |  | 3.09 (≈ 1.56 µg/mL) | 
O=c1nc(N2CC[C@@](O)(c3ccc(F)cc3)[C@H](O)C2)sc2c([N+](=O)[O-])cc(C(F)(F)F)cc12 | 66.1 | 0.0515 (≈ 0.025 µg/mL) | 
O=c1nc(N2CCn3cc(-c4ccc(F)cc4F)nc3C2)sc2c([N+](=O)[O-])cc(C(F)(F)F)cc12 |  | 0.196 (≈ 0.0998 µg/mL) | 
O=c1nc(N2CC[C@](O)(COc3ccc(F)cc3)[C@@H](O)C2)sc2c([N+](=O)[O-])cc(C(F)(F)F)cc12 | 34.3 | 0.0243 (≈ 0.0125 µg/mL) | 
O=c1nc(Nc2ccc(CCO)cc2)sc2c([N+](=O)[O-])cc(C(F)(F)F)cc12 |  | 15.2 (≈ 6.25 µg/mL) | 
Cn1c(-c2ccccc2)nc2c1CN(c1nc(=O)c3cc(C(F)(F)F)cc([N+](=O)[O-])c3s1)C2 |  |  | 13 10^3nM
O=c1nc(N2CCC(Oc3ccc(OC(F)(F)F)cc3)CC2)sc2c([N+](=O)[O-])cc(C(F)(F)F)cc12 | > 93 | 0.0579 (≈ 0.031 µg/mL) | 
CN(CCCCCCO)c1nc(=O)c2cc(C(F)(F)F)cc([N+](=O)[O-])c2s1 | 101 | 0.0308 (≈ 0.0125 µg/mL) | 
O=c1nc(N2CC[C@@H](c3ccccc3)[C@H](O)C2)sc2c([N+](=O)[O-])cc(C(F)(F)F)cc12 | > 93 | 0.0277 (≈ 0.0125 µg/mL) | 
CN(CCO)c1nc(=O)c2cc(C(F)(F)F)cc([N+](=O)[O-])c2s1 | 80.2 | 0.0716 (≈ 0.025 µg/mL) | 
CN1CCN(C(=O)CCCC(=O)N2CCN(c3nc(=O)c4cc(C(F)(F)F)cc([N+](=O)[O-])c4s3)CC2)CC1 |  | 11.2 (≈ 6.23 µg/mL) | 
O=c1nc(N2CCn3cc(-c4ccc(OC(F)(F)F)cc4)nc3C2)sc2c([N+](=O)[O-])cc(C(F)(F)F)cc12 |  | 1.4 (≈ 0.78 µg/mL) | 
O=C(O)[C@@H]1CN(c2nc(=O)c3cc(C(F)(F)F)cc([N+](=O)[O-])c3s2)Cc2ccccc21 |  |  | 3.5 10^3nM
O=c1nc(N2CCc3[nH]nc(-c4ccccc4)c3C2)sc2c([N+](=O)[O-])cc(C(F)(F)F)cc12 |  |  | 6.6 10^3nM
CC(C)n1c2c([n+](C)c1-c1ccccc1)CN(c1nc(=O)c3cc(C(F)(F)F)cc([N+](=O)[O-])c3s1)C2 |  | 0.0477 | 
O=c1nc(N2CCN(c3ccc(O)cc3)CC2)sc2c([N+](=O)[O-])cc(C(F)(F)F)cc12 |  | 1.72 (≈ 0.778 µg/mL) | 
O=c1nc(N2CC[C@@](O)(COc3ccc(F)cc3)[C@H](O)C2)sc2c([N+](=O)[O-])cc(C(F)(F)F)cc12 | 18.4 | 0.0485 (≈ 0.025 µg/mL) | 
O=c1nc(N2CCC(CCO)CC2)sc2c([N+](=O)[O-])cc(C(F)(F)F)cc12 | 91.5 | 0.992 (≈ 0.4 µg/mL) | 
CC(=O)c1ccc(N2CCN(c3nc(=O)c4cc(C(F)(F)F)cc([N+](=O)[O-])c4s3)CC2)cc1 | > 105 | 0.13 (≈ 0.0622 µg/mL) | 
O=c1nc(N2CCNCC2)sc2c([N+](=O)[O-])cc(C(F)(F)F)cc12 |  | 17.3 (≈ 6.23 µg/mL) | 

SMILES | CC50 at 72 h [1] [µM] | MIC (Mycolicibacterium vaccae; [2]) [µM] | MIC (Mycolicibacterium vaccae)
CN(c1ccc(O)cc1)c1nc(=O)c2cc(C(F)(F)F)cc([N+](=O)[O-])c2s1 |  | 126 (≈ 50.1 µg/mL) | 
CN(c1ccc(CN)cc1)c1nc(=O)c2cc(C(F)(F)F)cc([N+](=O)[O-])c2s1 |  | 3.8 (≈ 1.56 µg/mL) | 
CC(C)n1c(-c2ccccc2)nc2c1CN(c1nc(=O)c3cc(C(F)(F)F)cc([N+](=O)[O-])c3s1)C2 |  | 0.798 (≈ 0.4 µg/mL) | 
CN1CCN(C(=O)C(F)(F)C(F)(F)C(=O)N2CCN(c3nc(=O)c4cc(C(F)(F)F)cc([N+](=O)[O-])c4s3)CC2)CC1 | > 81.4 | 0.0407 (≈ 0.025 µg/mL) | 
O=c1nc(N2CCn3nnc(-c4ccccc4)c3C2)sc2c([N+](=O)[O-])cc(C(F)(F)F)cc12 |  | 1.64 (≈ 0.778 µg/mL) | 
CN1CCC(CCCC2CCN(c3nc(=O)c4cc(C(F)(F)F)cc([N+](=O)[O-])c4s3)CC2)CC1 | 20.1 | 0.124 (≈ 0.0618 µg/mL) | 
COc1cc(OC)cc(N2CCN(c3nc(=O)c4cc(C(F)(F)F)cc([N+](=O)[O-])c4s3)CC2)c1 | > 101 | 0.0624 (≈ 0.031 µg/mL) | 
O=c1nc(N2CCN(CC(F)(F)c3ccc(F)cc3)CC2)sc2c([N+](=O)[O-])cc(C(F)(F)F)cc12 | 87.2 | 0.0154 (≈ 0.00798 µg/mL) | 
O=c1nc(N2CC[C@](O)(c3ccccc3)[C@@H](O)C2)sc2c([N+](=O)[O-])cc(C(F)(F)F)cc12 | 73 | 0.0267 (≈ 0.0125 µg/mL) | 
O=C(c1ccc2[nH]ncc2c1)N1CCN(c2nc(=O)c3cc(C(F)(F)F)cc([N+](=O)[O-])c3s2)CC1 |  | 6.19 (≈ 3.12 µg/mL) | 
O=c1nc(N2CCn3cc(-c4ccccc4)nc3C2)sc2c([N+](=O)[O-])cc(C(F)(F)F)cc12 |  |  | 53 10^3nM
CN(c1ccc(CO)cc1)c1nc(=O)c2cc(C(F)(F)F)cc([N+](=O)[O-])c2s1 |  | 30.4 (≈ 12.5 µg/mL) | 
O=C(O)c1ccccc1N1CCN(c2nc(=O)c3cc(C(F)(F)F)cc([N+](=O)[O-])c3s2)CC1 |  | 6.49 (≈ 3.12 µg/mL) | 
O=c1nc(Nc2ccc3[nH]ncc3c2)sc2c([N+](=O)[O-])cc(C(F)(F)F)cc12 |  | 61.4 (≈ 25 µg/mL) | 
O=c1nc(Nc2ccccc2)sc2c([N+](=O)[O-])cc(C(F)(F)F)cc12 |  | 68.1 (≈ 25 µg/mL) | 
O=c1nc(N2CC[C@](O)(c3ccc(F)cc3)[C@@H](O)C2)sc2c([N+](=O)[O-])cc(C(F)(F)F)cc12 | 73.3 | 0.0515 (≈ 0.025 µg/mL) | 
O=c1nc(N2CCN(Cc3ccncc3)CC2)sc2c([N+](=O)[O-])cc(C(F)(F)F)cc12 | > 111 | 0.0687 (≈ 0.031 µg/mL) | 
O=c1nc(N2CC[C@@H](c3ccc(F)cc3)[C@H](CO)C2)sc2c([N+](=O)[O-])cc(C(F)(F)F)cc12 | 35.8 | 0.0128 (≈ 0.00619 µg/mL) | 
O=c1nc(N2Cc3[nH]nc(-c4ccccc4)c3C2)sc2c([N+](=O)[O-])cc(C(F)(F)F)cc12 |  | 13.6 (≈ 6.25 µg/mL) | 
O=c1nc(N2CC[C@@H](c3ccc(F)cc3)[C@H](O)C2)sc2c([N+](=O)[O-])cc(C(F)(F)F)cc12 | 68.4 | 0.0132 (≈ 0.0062 µg/mL) | 
CN(c1ccc(CCO)cc1)c1nc(=O)c2cc(C(F)(F)F)cc([N+](=O)[O-])c2s1 |  | 7.33 (≈ 3.12 µg/mL) | 
O=c1nc(N2CCC(O)CC2)sc2c([N+](=O)[O-])cc(C(F)(F)F)cc12 |  |  | 1.1 10^3nM

SMILES | CC50 at 72 h [1] [µM] | MIC (Mycolicibacterium vaccae; [2]) [µM] | MIC (Mycolicibacterium vaccae)
O=c1nc(N2CCC(CO)CC2)sc2c([N+](=O)[O-])cc(C(F)(F)F)cc12 |  | 2 (≈ 0.779 µg/mL) | 
CN1CCN(c2nc(=O)c3cc(C(F)(F)F)cc([N+](=O)[O-])c3s2)CC1 |  | 0.267 (≈ 0.0999 µg/mL) | 
O=C(c1cccc2[nH]ncc12)N1CCN(c2nc(=O)c3cc(C(F)(F)F)cc([N+](=O)[O-])c3s2)CC1 |  | 1.55 (≈ 0.782 µg/mL) | 
O=C(CN1CCN(c2nc(=O)c3cc(C(F)(F)F)cc([N+](=O)[O-])c3s2)CC1)N1CCOCC1 |  | 0.205 (≈ 0.0999 µg/mL) | 
O=c1nc(N2CCn3cc(-c4ccc(F)c(F)c4)nc3C2)sc2c([N+](=O)[O-])cc(C(F)(F)F)cc12 |  | 0.0491 (≈ 0.025 µg/mL) | 
Cn1c(-c2ccccc2)nc2c1CCN(c1nc(=O)c3cc(C(F)(F)F)cc([N+](=O)[O-])c3s1)C2 |  | 0.41 (≈ 0.2 µg/mL) | 
O=c1nc(N2CCc3[nH]c(-c4ccccc4)nc3C2)sc2c([N+](=O)[O-])cc(C(F)(F)F)cc12 |  | 52.8 (≈ 25 µg/mL) | 
CN1CCN(C(=O)CCC(=O)N2CCN(c3nc(=O)c4cc(C(F)(F)F)cc([N+](=O)[O-])c4s3)CC2)CC1 |  |  | 5.8 10^3nM
O=c1nc(N2CCn3c(-c4ccccc4)cnc3C2)sc2c([N+](=O)[O-])cc(C(F)(F)F)cc12 |  | 0.0131 (≈ 0.0062 µg/mL) | 
O=c1nc(N2CCn3c(nnc3-c3ccccc3)C2)sc2c([N+](=O)[O-])cc(C(F)(F)F)cc12 |  | 0.0527 (≈ 0.025 µg/mL) | 
O=c1nc(N2CCN(CCCC3(c4ccc(F)cc4)OCCO3)CC2)sc2c([N+](=O)[O-])cc(C(F)(F)F)cc12 |  | 0.141 (≈ 0.0802 µg/mL) | 
O=c1nc(N2CCn3nncc3C2)sc2c([N+](=O)[O-])cc(C(F)(F)F)cc12 |  | 31.4 (≈ 12.5 µg/mL) | 
CN1CCC(CCC2CCN(c3nc(=O)c4cc(C(F)(F)F)cc([N+](=O)[O-])c4s3)CC2)CC1 |  | 0.206 (≈ 0.0998 µg/mL) | 
CN(c1ccc2[nH]ncc2c1)c1nc(=O)c2cc(C(F)(F)F)cc([N+](=O)[O-])c2s1 |  | 0.949 (≈ 0.4 µg/mL) | 
O=c1nc(N2CCn3nc(-c4ccccc4)nc3C2)sc2c([N+](=O)[O-])cc(C(F)(F)F)cc12 |  | 105 (≈ 49.8 µg/mL) | 
O=c1nc(Nc2ccc(CO)cc2)sc2c([N+](=O)[O-])cc(C(F)(F)F)cc12 |  |  | 16 10^3nM
O=c1nc(N2CCN(CCc3ccccc3)CC2)sc2c([N+](=O)[O-])cc(C(F)(F)F)cc12 | > 108 | 0.0172 (≈ 0.00799 µg/mL) | 
CCn1c(-c2ccccc2)nc2c1CN(c1nc(=O)c3cc(C(F)(F)F)cc([N+](=O)[O-])c3s1)C2 |  | 3.2 (≈ 1.56 µg/mL) | 
CN1CCC(OC2CCN(c3nc(=O)c4cc(C(F)(F)F)cc([N+](=O)[O-])c4s3)CC2)CC1 |  |  | 6.6 10^3nM
Cc1nnc2n1CCN(c1nc(=O)c3cc(C(F)(F)F)cc([N+](=O)[O-])c3s1)C2 |  | 3.78 (≈ 1.56 µg/mL) | 
O=c1nc(N2CCc3nc(-c4ccccc4)ncc3C2)sc2c([N+](=O)[O-])cc(C(F)(F)F)cc12 |  |  | 26 10^3nM
O=c1nc(N2CC[C@@](O)(c3ccccc3)[C@H](O)C2)sc2c([N+](=O)[O-])cc(C(F)(F)F)cc12 | 68.5 | 0.0535 (≈ 0.025 µg/mL) | 
